“And” between values parts separate entries of the source, which are not always exact repeats. Identical values can stand only once. Like-named read-outs stand apart in the source and are kept apart here.
How the values were obtained:
[1] = tested on: P. falciparum D6 (CQ susceptible (CQS) strain); parameters: method as in PMID 26640981, PMID 25801154; conditions: previously reported compounds; ref [27],[28]; cited from earlier work
[2] = tested on: P. falciparum D6 (CQ susceptible (CQS) strain); assay: Malaria SYBR Green Fluorescence Assay, D6 strain; format: cell-based; conditions: Plasmodium falciparum; CQ susceptible African D6 clone; read-out: In Vitro Antimalarial Activity (P. falciparum, IC50, nM) D6
[3] = tested on: P. falciparum W2 (CQ resistant (CQR) strain); assay: microbe, parasite or virus in culture; format: cell-based, Plasmodium falciparum; conditions: for RI W2/D6 (resistance index): IC50 W2 / IC50 D6; for IC50: Plasmodium falciparum, W2, read-out: In Vitro Antimalarial Activity (P. falciparum, IC50, nM) W2
[4] = tested on: P. falciparum TM91C235 (Thailand, multidrug-resistant (MDR) strain); assay: Malaria SYBR Green Fluorescence Assay, TM91C235 strain; format: cell-based; conditions: Plasmodium falciparum, read-out: In Vitro Antimalarial Activity (P. falciparum, IC50, nM) C235
[5] = tested on: HepG2 (hepatocellular carcinoma) cell line; assay: Compound toxicity in HepG2 cell line; format: cell-based, human; conditions: for IC50: Homo sapiens, HepG2, hepatocellular carcinoma cells; for SI HepG2/D6 (selectivity index): IC50 HepG2 / IC50 D6
Protocol: To investigate possible toxicity issues, the synthesized compounds were evaluated in vitro against a human hepatoma cell line (HepG2).
Synthesized aminoquinolines were screened in vitro against P. falciparum strains: CQ and MFQ susceptible strain D6 (clone of Sierra Leone/UNC isolate), CQ resistant but MFQ susceptible strain W2 (clone of Indochina isolate), and CQ and MFQ resistant strain TM91C235 (clone of South East Asian isolate) using the Malaria SYBR Green Fluorescence Assay. Full method details are given in Supplementary Materials I. Assessment of compound toxicity in a HepG2 (hepatocellular carcinoma) cell line followed the protocol described in Ref. [40].

P. berghei (ANKA) = assay: Modified Thompson test, P. berghei mouse efficacy; format: in vivo, Plasmodium berghei; conditions: for Parasitemia D21: day 21; for Parasitemia D24: day 24; for Mean Survival Time (MST, Days) / Mice Alive on Day 31 / Mice Dead/Day Died: infected mice; for Parasitemia D25: day 25
Protocol: In a separate host toxicity study, benzothiophene 25 was subjected to in vivo toxicity evaluation. […]
The P. berghei (ANKA) mouse efficacy tests were conducted using a modified version of the Thompson test. Groups of five mice were inoculated intraperitoneally with erythrocytes infected with P. berghei on day 0. Drugs were suspended in 0.5% hydroxyethylcellulose-0.1% Tween 80 and administered orally once a day beginning on day 3 post infection. […] Cure was defined as survival (with no parasitemia) until day 31 post-treatment. Parasitemia was determined by thin-blood Giemsa-stained smears prepared from mice tail blood of each animal on days 0, 3, 6, 10, 13, 17, 20, 24, 27, and 31 (postinfection). The slides were examined under a light microscope.

healthy mice = assay: Host toxicity study in healthy mice; format: in vivo; conditions: 160 mg/kg/day × 3 days; for Mice survived in host toxicity study: groups of 5 healthy mice; for Host toxicity (toxic / non-toxic): healthy mice, orally
Protocol: In a separate host toxicity study, groups of five healthy mice were administered 160 mg/kg/day × 3 days of the investigational compounds and individually monitored for behavior and appearance two times a day for 31 days. No toxicity was defined as survival past day 31 with no overt clinical manifestations of toxicity (changes in behavior and appearance).

[6] = tested on: P. falciparum W2 (CQ resistant (CQR) strain); parameters: method as in PMID 26640981; conditions: previously reported compounds; ref [27]; cited from earlier work
[7] = tested on: HepG2 (hepatocellular carcinoma) cell line; parameters: method as in PMID 26640981; conditions: previously reported compounds; ref [27]; cited from earlier work
[8] = 160 mg/kg/day p.o., days 3–5 postinfection
[9] = 160 mg/kg/day p.o., days 3–5 postinfection, 160 mg/kg/day
[10] = 40 mg/kg/day p.o., days 3–6 postinfection
[11] = 80 mg/kg/day p.o., days 3–6 postinfection

Fc1ccc2scc(CNCCCCNc3ccnc4cc(Cl)ccc34)c2c1 [Compound 2]
IC50 [1]: 10 nM

N#Cc1ccc2scc(CNCCCNc3ccnc4cc(Cl)ccc34)c2c1 [Compound 3]
IC50 [1]: 5 nM

N#Cc1ccc(-c2ccc(CNCCCNc3ccnc4cc(Cl)ccc34)s2)cc1 [Compound 4]
IC50 [1]: 2 nM

COc1ccc(-c2ccc(CNCCCNc3ccnc4cc(Cl)ccc34)s2)cc1 [Compound 5]
IC50 [1]: 7 nM

Cc1ccc(-c2ccc(CNCCNc3ccnc4cc(Cl)ccc34)s2)cc1 [Compound 6]
IC50 [1]: 5 nM

CC(CCCNCc1ccc(-c2csc3ccc(F)cc23)cc1)Nc1ccnc2cc(Cl)ccc12 (centres unmarked) [Compound 25]
IC50 [2]: 71 nM
RI W2/D6 (resistance index) [3]: 0.2
IC50 [3]: 12 nM
IC50 [4]: 121 nM
IC50 [5]: 2090 nM
SI HepG2/D6 (selectivity index) [5]: 29
Parasitemia D21 (P. berghei (ANKA); 160 mg/kg/day p.o. days 3–5): 2.7%
Parasitemia D24 (P. berghei (ANKA); 160 mg/kg/day p.o. days 3–5): 52%
Parasitemia D28 (P. berghei (ANKA); 160 mg/kg/day p.o. days 3–5, day 28): 72%
Parasitemia D31 (P. berghei (ANKA); 160 mg/kg/day p.o. days 3–5, day 31 (end of study)): 79%
Mean Survival Time (MST, Days) (P. berghei (ANKA); [8]): 20.8 days
Mice Alive on Day 31 (P. berghei (ANKA); [9]): only one surviving 31 days but with parasitemia and 1/4
Mice Dead/Day Died (P. berghei (ANKA); [9]): 2/17 and 1/18
Mice survived in host toxicity study (healthy mice): 5
Host toxicity (toxic / non-toxic) (healthy mice): non-toxic

N#Cc1ccc(-c2ccc(-c3ccc(CNCCCCCCCCNc4ccnc5cc(Cl)ccc45)cc3)s2)cc1 [Compound 42]
IC50 [2]: 55 nM
RI W2/D6 (resistance index) [3]: 0.2
IC50 [3]: 12 nM
IC50 [4]: 30 nM
IC50 [5]: 2090 nM
SI HepG2/D6 (selectivity index) [5]: 38
Parasitemia D24 (P. berghei (ANKA); 160 mg/kg/day p.o. days 3–5): 75%
Mean Survival Time (MST, Days) (P. berghei (ANKA); [8]): 18.6 days
Mice Alive on Day 31 (P. berghei (ANKA); [8]): 0/5
Mice Dead/Day Died (P. berghei (ANKA); [9]): 1/9 and 1/13 and 1/20 and 1/23 and 1/28
Mice survived in host toxicity study (healthy mice): 5
Host toxicity (toxic / non-toxic) (healthy mice): non-toxic

CN(CCCCCCCCNc1ccnc2ccccc12)Cc1ccc(-c2ccc(-c3ccc(C#N)cc3)s2)cc1 [Compound 46]
IC50 [2]: 7 nM
RI W2/D6 (resistance index) [3]: 0.7
IC50 [3]: 5 nM
IC50 [4]: 13 nM
IC50 [5]: 2570 nM
SI HepG2/D6 (selectivity index) [5]: 367
Parasitemia D25 (P. berghei (ANKA); 40 mg/kg/day p.o. days 3–6): 43%
Parasitemia D14 (P. berghei (ANKA); 80 mg/kg/day p.o. days 3–6, day 14): 4.7%
Parasitemia D18 (P. berghei (ANKA); 80 mg/kg/day p.o. days 3–6, day 18): 12%
Parasitemia D21 (P. berghei (ANKA); 80 mg/kg/day p.o. days 3–6): 35%
Parasitemia D25 (P. berghei (ANKA); 80 mg/kg/day p.o. days 3–6): 41%
One mouse survival until day (P. berghei (ANKA); 80 and 40 mg/kg/day × 4 days (both doses)): 25 days
Mean Survival Time (MST, Days) (P. berghei (ANKA); [10]): 15.8 days
Mice Alive on Day 31 (P. berghei (ANKA); [10]): 0/5
Mice Dead/Day Died (P. berghei (ANKA); 40 mg/kg/day p.o., days 3–6 postinfection, 40 mg/kg/day): 1/10 and 2/11 and 1/22 and 1/25
Mean Survival Time (MST, Days) (P. berghei (ANKA); [11]): 14.4 days
Mice Alive on Day 31 (P. berghei (ANKA); [11]): 0/5
Mice Dead/Day Died (P. berghei (ANKA); 80 mg/kg/day p.o., days 3–6 postinfection, 80 mg/kg/day): 1/7 and 1/12 and 1/13 and 1/14 and 1/26
Mice survived in host toxicity study (healthy mice): 5
Host toxicity (toxic / non-toxic) (healthy mice): non-toxic

Clc1ccc2c(NCCCNCc3csc4ccccc34)ccnc2c1 [Compound 53]
Host toxicity (toxic / non-toxic) (healthy mice): toxic
IC50 [1]: 7 nM
IC50 [6]: 24 nM
SI(HepG2/D6) [7]: 1111
